What was measured:
[1] = biological target: T1, AURKA (Homo sapiens, UniProt O14965); format: cell-based; details: Jurkat cells, 24 h, Table 1
T1 construct: endogenous in cells; host or cells: Jurkat cells
T1 sequence (O14965 1-403): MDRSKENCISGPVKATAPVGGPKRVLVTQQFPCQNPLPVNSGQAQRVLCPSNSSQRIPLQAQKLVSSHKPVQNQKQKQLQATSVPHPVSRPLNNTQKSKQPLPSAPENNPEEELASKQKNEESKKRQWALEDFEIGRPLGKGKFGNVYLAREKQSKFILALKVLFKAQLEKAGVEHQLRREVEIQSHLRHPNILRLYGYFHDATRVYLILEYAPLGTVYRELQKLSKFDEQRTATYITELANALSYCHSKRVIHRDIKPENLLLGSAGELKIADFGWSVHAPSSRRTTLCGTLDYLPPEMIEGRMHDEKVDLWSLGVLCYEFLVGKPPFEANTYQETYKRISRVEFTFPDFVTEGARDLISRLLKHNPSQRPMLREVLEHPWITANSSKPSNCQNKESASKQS
Outline: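 Jurkat cells seeded at 1×10^6 cells/500 µL and treated with compound; lysates run on SDS-PAGE, blotted to nitrocellulose and probed overnight at 4°C for AURKA. Chemiluminescent or fluorescent band intensity fitted to a curve to give DC50 for protein degradation.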

[2] = test system: HCC1806 cells; assay: CTG assay of compound inhibition on cell viability (HCC1806 cells); format: cell-based; details: Homo sapiens, HCC1806, 144 h, read-out: IC50 in HCC1806 Cells
Experimental: CellTiter-Glo (CTG) is a rapid cell viability test method based on ATP detection. […] Adenosine triphosphate (ATP) participates in various enzymatic reactions in organisms and is an indicator of living cell metabolism. Its content directly reflects the number of living cells and cell status. During the experiment, equal volume of CTG reagent is added to the cultured cells to measure the luminescence value. The chemiluminescent signal value is proportional to the amount of ATP, thus reflecting the number of viable cells. Therefore, cell viability can be obtained by detecting the ATP content. Compounds that affect cell viability will inhibit cell viability in a concentration-dependent manner, allowing a curve to be fitted to obtain the IC50 value.
The experimental procedure is as follows: • 11. Place the cell suspension in a 15 mL centrifuge tube, centrifuge at 1000 rpm for 5 min at room temperature, discard the supernatant, and collect the cell pellet. • 12. Resuspend the cell pellet with preheated complete cell culture medium (RPMI1640+10%FBS+1%PS), and use a Countess® automated cell counter to detect cell viability and density. The cell viability must be above 90%. • 13. […] Transfer the compound solution to a 96-well plate seeded with cells (final concentration of DMSO 0.1%), and place in a cell incubator at 37°C, 5% CO2 for 6 days. • 15. […] Protect from light during the whole process. Perform optical signal readings using a SpectraMax i3x reader. • 16. Data analysis: Remaining activity (%) = 100% * (1 - ((LumDMSO - Lummedium) - Lumsample) / (LumDMSO - LumPBS/medium)). Use GraphPad Prism 9.0 software to draw an S-shaped dose-survival rate curve and calculate the IC50 value using a nonlinear regression model.

With `COc1cc(Nc2ncc3c(n2)-c2ccc(Cl)cc2C(c2c(F)cccc2OC)=NC3)ccc1C(=O)NCCN1CCC(c2ccc(N3CCC(=O)NC3=O)cc2)CC1` [Compound A15] the “Percentage of AURKA Degradation Induced by 100 nM Compound in Jurkat Cells” value (from here on “Percentage … by 100 nM Compound in Jurkat Cells”) [1] was “+++ (Degradation > 70%)”, the “Percentage of AURKA Degradation Induced by 1 µM Compound in Jurkat Cells” value (from here on “Percentage … by 1 µM Compound in Jurkat Cells”) [1] was “+++ (Degradation > 70%)” and the IC50 [2] was under 1 µM.
For `COc1cc(Nc2ncc3c(n2)-c2ccc(Cl)cc2C(c2c(F)cccc2OC)=NC3)ccc1C(=O)NCCN1CCC(c2ccc(N3CCC(=O)NC3=O)cn2)CC1` [Compound A16], the “Percentage … by 100 nM Compound in Jurkat Cells” value [1] was “+++ (Degradation > 70%)”, the “Percentage … by 1 µM Compound in Jurkat Cells” value [1] was “++ (30% < Degradation ≤ 70%)” and the IC50 [2] was under 1 µM.
`COc1cc(Nc2ncc3c(n2)-c2ccc(Cl)cc2C(c2c(F)cccc2OC)=NC3)ccc1C(=O)NCCN1Cc2cc3c(cc2C1)C(=O)N(C1CCC(=O)NC1=O)C3=O` (stereo not drawn) [Compound A17] was tested, and the “Percentage … by 100 nM Compound in Jurkat Cells” value [1] was “+ (Degradation ≤ 30%)”, the “Percentage … by 1 µM Compound in Jurkat Cells” value [1] was “+ (Degradation ≤ 30%)” and the IC50 [2] was under 1 µM.
With `O=C1CCN(c2ccc(N3CCN(C4CN(C(=O)c5ccc(Nc6ncc7c(n6)-c6ccc(Cl)cc6C(c6c(F)cccc6F)=NC7)cc5)C4)CC3)cc2)C(=O)N1` [Compound A19] the “Percentage … by 100 nM Compound in Jurkat Cells” value [1] was “++ (30% < Degradation ≤ 70%)”, the “Percentage … by 1 µM Compound in Jurkat Cells” value [1] was “+ (Degradation ≤ 30%)” and the IC50 [2] was under 1 µM.
In the case of `COc1cc(Nc2ncc3c(n2)-c2ccc(Cl)cc2C(c2c(F)cccc2OC)=NC3)ccc1C(=O)NCCN1CCN(c2cccn3c(N4CCC(=O)NC4=O)cnc23)CC1` [Compound A21], the “Percentage … by 100 nM Compound in Jurkat Cells” value [1] is reported as “+++ (Degradation > 70%)”, the “Percentage … by 1 µM Compound in Jurkat Cells” value [1] is reported as “+++ (Degradation > 70%)” and the IC50 [2] is reported as under 1 µM.
For `O=C1CCN(c2cnc3c(N4CCN(CCNC(=O)c5ccc(Nc6ncc7c(n6)-c6ccc(Cl)cc6C(c6c(F)cccc6F)=NC7)cc5)CC4)cccn23)C(=O)N1` [Compound A22], the “Percentage … by 100 nM Compound in Jurkat Cells” value [1] was “+++ (Degradation > 70%)”, the “Percentage … by 1 µM Compound in Jurkat Cells” value [1] was “+++ (Degradation > 70%)” and the IC50 [2] was under 1 µM.
With `COc1cc(Nc2ncc3c(n2)-c2ccc(Cl)cc2C(c2c(F)cccc2OC)=NC3)ccc1C(=O)NCCN1CCC(n2cnc(N3CCC(=O)NC3=O)c2)CC1` [Compound A23] the “Percentage … by 100 nM Compound in Jurkat Cells” value [1] was “+ (Degradation ≤ 30%)”, the “Percentage … by 1 µM Compound in Jurkat Cells” value [1] was “+ (Degradation ≤ 30%)” and the IC50 [2] was under 1 µM.
`COc1cc(Nc2ncc3c(n2)-c2ccc(Cl)cc2C(c2c(F)cccc2OC)=NC3)ccc1C(=O)NCCN1CCN(c2ncc(N3CCC(=O)NC3=O)s2)CC1` [Compound A24] was tested, and the “Percentage … by 100 nM Compound in Jurkat Cells” value [1] was “+++ (Degradation > 70%)”, the “Percentage … by 1 µM Compound in Jurkat Cells” value [1] was “++ (30% < Degradation ≤ 70%)” and the IC50 [2] was under 1 µM.
For `O=C1CCN(c2cnc(N3CCN(CCNC(=O)c4ccc(Nc5ncc6c(n5)-c5ccc(Cl)cc5C(c5c(F)cccc5F)=NC6)cc4)CC3)s2)C(=O)N1` [Compound A25], the “Percentage … by 100 nM Compound in Jurkat Cells” value [1] was “+++ (Degradation > 70%)”, the “Percentage … by 1 µM Compound in Jurkat Cells” value [1] was “++ (30% < Degradation ≤ 70%)” and the IC50 [2] was under 1 µM.
In the case of `COc1cc(Nc2ncc3c(n2)-c2ccc(Cl)cc2C(c2c(F)cccc2OC)=NC3)ccc1C(=O)NCCC#Cc1ccc(N2CCC(=O)NC2=O)cc1` [Compound A26], the “Percentage … by 100 nM Compound in Jurkat Cells” value [1] is reported as “+ (Degradation ≤ 30%)”, the “Percentage … by 1 µM Compound in Jurkat Cells” value [1] is reported as “+ (Degradation ≤ 30%)” and the IC50 [2] is reported as under 1 µM.
For `COc1cc(Nc2ncc3c(n2)-c2ccc(Cl)cc2C(c2c(F)cccc2OC)=NC3)ccc1C(=O)NCC1CCN(Cc2ccc(N3CCC(=O)NC3=O)cc2)CC1` [Compound A27], the “Percentage … by 100 nM Compound in Jurkat Cells” value [1] was “+ (Degradation ≤ 30%)”, the “Percentage … by 1 µM Compound in Jurkat Cells” value [1] was “+ (Degradation ≤ 30%)” and the IC50 [2] was 1 to 10 µM.
`COc1cc(Nc2ncc3c(n2)-c2ccc(Cl)cc2C(c2c(F)cccc2OC)=NC3)ccc1C(=O)NC1CCN(Cc2ccc(N3CCC(=O)NC3=O)cc2)CC1` [Compound A28] was tested, and the “Percentage … by 100 nM Compound in Jurkat Cells” value [1] was “+ (Degradation ≤ 30%)”, the “Percentage … by 1 µM Compound in Jurkat Cells” value [1] was “+ (Degradation ≤ 30%)” and the IC50 [2] was under 1 µM.
For `COc1cc(Nc2ncc3c(n2)-c2ccc(Cl)cc2C(c2c(F)cccc2OC)=NC3)ccc1C(=O)NCCN1CCN(c2ccc(N3CCC(=O)NC3=O)cn2)CC1` [Compound A29], the “Percentage … by 100 nM Compound in Jurkat Cells” value [1] was “+++ (Degradation > 70%)”, the “Percentage … by 1 µM Compound in Jurkat Cells” value [1] was “+++ (Degradation > 70%)” and the IC50 [2] was under 1 µM.
For `COc1cc(Nc2ncc3c(n2)-c2ccc(Cl)cc2C(c2c(F)cccc2OC)=NC3)ccc1C(=O)NCCN1CCN(c2ccc(N3CCC(=O)NC3=O)nc2)CC1` [Compound A30], the “Percentage … by 100 nM Compound in Jurkat Cells” value [1] was “++ (30% < Degradation ≤ 70%)”, the “Percentage … by 1 µM Compound in Jurkat Cells” value [1] was “++ (30% < Degradation ≤ 70%)” and the IC50 [2] was under 1 µM.
With `COc1cc(Nc2ncc3c(n2)-c2ccc(Cl)cc2C(c2c(F)cccc2OC)=NC3)ccc1C(=O)NCCOCCNc1ccn2c(N3CCC(=O)NC3=O)cnc2c1` [Compound A32] the “Percentage … by 100 nM Compound in Jurkat Cells” value [1] was “+ (Degradation ≤ 30%)”, the “Percentage … by 1 µM Compound in Jurkat Cells” value [1] was “+ (Degradation ≤ 30%)” and the IC50 [2] was over 10 µM.
In the case of `COc1cc(Nc2ncc3c(n2)-c2ccc(Cl)cc2C(c2c(F)cccc2OC)=NC3)ccc1C(=O)N1CC2(CN(Cc3cccc4c3C(=O)N(C3CCC(=O)NC3=O)C4=O)C2)C1` (stereo not drawn) [Compound A33], the “Percentage … by 100 nM Compound in Jurkat Cells” value [1] is reported as “++ (30% < Degradation ≤ 70%)”, the “Percentage … by 1 µM Compound in Jurkat Cells” value [1] is reported as “++ (30% < Degradation ≤ 70%)” and the IC50 [2] is reported as under 1 µM.
With `COc1cc(Nc2ncc3c(n2)-c2ccc(Cl)cc2C(c2c(F)cccc2OC)=NC3)ccc1C(=O)N1CC(N(C)CC#Cc2cccc3c2CN(C2CCC(=O)NC2=O)C3=O)C1` (stereo not drawn) [Compound A34] the “Percentage … by 100 nM Compound in Jurkat Cells” value [1] was “++ (30% < Degradation ≤ 70%)”, the “Percentage … by 1 µM Compound in Jurkat Cells” value [1] was “++ (30% < Degradation ≤ 70%)” and the IC50 [2] was under 1 µM.
`COc1cc(Nc2ncc3c(n2)-c2ccc(Cl)cc2C(c2c(F)cccc2OC)=NC3)ccc1C(=O)N1CCC2(CCN(c3ccc(N4CCC(=O)NC4=O)cc3)CC2)C1` [Compound A36] was tested, and the “Percentage … by 100 nM Compound in Jurkat Cells” value [1] was “+ (Degradation ≤ 30%)”, the “Percentage … by 1 µM Compound in Jurkat Cells” value [1] was “+ (Degradation ≤ 30%)” and the IC50 [2] was under 1 µM.
With `O=C1CCN(c2ccc(N3CCC4(CC3)CC(NC(=O)c3ccc(Nc5ncc6c(n5)-c5ccc(Cl)cc5C(c5c(F)cccc5F)=NC6)cc3)C4)cc2)C(=O)N1` [Compound A37] the “Percentage … by 100 nM Compound in Jurkat Cells” value [1] was “+++ (Degradation > 70%)”, the “Percentage … by 1 µM Compound in Jurkat Cells” value [1] was “+++ (Degradation > 70%)” and the IC50 [2] was under 1 µM.
With `COc1cc(Nc2ncc3c(n2)-c2ccc(Cl)cc2C(c2c(F)cccc2OC)=NC3)ccc1C(=O)NC1CC2(CCN(c3ccc(N4CCC(=O)NC4=O)cc3)CC2)C1` [Compound A38] the “Percentage … by 100 nM Compound in Jurkat Cells” value [1] was “+++ (Degradation > 70%)”, the “Percentage … by 1 µM Compound in Jurkat Cells” value [1] was “+++ (Degradation > 70%)” and the IC50 [2] was under 1 µM.
For `COc1cc(Nc2ncc3c(n2)-c2ccc(Cl)cc2C(c2c(F)cccc2OC)=NC3)ccc1C(=O)N(C)C1CC2(CCN(c3ccc(N4CCC(=O)NC4=O)cc3)CC2)C1` [Compound A40], the “Percentage … by 100 nM Compound in Jurkat Cells” value [1] was “++ (30% < Degradation ≤ 70%)”, the “Percentage … by 1 µM Compound in Jurkat Cells” value [1] was “+ (Degradation ≤ 30%)” and the IC50 [2] was under 1 µM.
For `COc1cc(Nc2ncc3c(n2)-c2ccc(Cl)cc2C(c2c(F)cccc2OC)=NC3)ccc1C(=O)N1CC2(CCN(c3ccc(N4CCC(=O)NC4=O)cc3)CC2)C1` [Compound A42], the “Percentage … by 100 nM Compound in Jurkat Cells” value [1] was “+ (Degradation ≤ 30%)”, the “Percentage … by 1 µM Compound in Jurkat Cells” value [1] was “+ (Degradation ≤ 30%)” and the IC50 [2] was over 10 µM.
In the case of `O=C1CCN(c2ccc(N3CC4(CCN(C(=O)c5ccc(Nc6ncc7c(n6)-c6ccc(Cl)cc6C(c6c(F)cccc6F)=NC7)cc5)C4)C3)cc2)C(=O)N1` [Compound A43], the “Percentage … by 100 nM Compound in Jurkat Cells” value [1] is reported as “+ (Degradation ≤ 30%)”, the “Percentage … by 1 µM Compound in Jurkat Cells” value [1] is reported as “+ (Degradation ≤ 30%)” and the IC50 [2] is reported as over 10 µM.
